We go through eight molecules from patent US10206394B2, “Herbicidal compounds” (Syngenta Participations AG, priority 2014, dated 2019).

Holding throughout (assay): Glasshouse assay for herbicidal activity (pre- and post-emergence), percentage phytotoxicity
What all share (type): in vivo

In assay [1] the test system is Echinochloa crus-galli (ECHCG). The following applies: Echinochloa crus-galli. The method, then: (§1) Test—Glasshouse Assay for Herbicidal Activity
(§2) Seeds of a variety of monocotyledonous and dicotyledonous test plants are sown in standard soil in pots. The plants are cultivated for one day (for pre-emergence (PRE)) or for about 12 days (for post-emergence (POST)) under controlled conditions in a glasshouse (warm climate species at 24/18° C., cool climate species at 20/16° C., both at day/night; 16 hours light; 65% humidity).
(§3) The test plants are then grown on, in a glasshouse (greenhouse) under controlled conditions (warm climate species at 24/18° C., cool climate species at 20/16° C., both at day/night; 16 hours light; 65% humidity) and are watered twice daily. 15 days after application of the test herbicide (15 DAA) (for post-emergence), and 20 days after application of the test herbicide (20 DAA) (for pre-emergence), the test plants are evaluated visually, and an assessed percentage phytotoxicity score is given for each herbicidal application on each plant species (with 100%=total damage to plant; 0%=no damage to plant).
(§4) The plant species tested are as follows: Alopecurus myosuroides (ALOMY), Avena fatua (AVEFA), Lolium perenne (LOLPE), Echinochloa crus-galli (ECHCG).

For a further assay, the system named is Avena fatua (AVEFA). The following applies: Avena fatua. On the procedure:
as §1, §2, §3, §4

For a further assay, the system named is Lolium perenne (LOLPE). The following applies: Lolium perenne. On the procedure:
as §1, §2, §3, §4

Assay [2] has as its system Alopecurus myosuroides (ALOMY). The following applies: Alopecurus myosuroides. The method, then:
as §1, §2, §3, §4

[3] abbreviates: post-emergence, 360 h, POST-emergence, rate 250 g/ha, visual score 15 DAA (100%=total damage, 0%=no damage), read-out: Post-emergence herbicidal activity (percentage phytotoxicity) ECHCG POST.
Setting [4] is: pre-emergence, 480 h, PRE-emergence, rate 250 g/ha, visual score 20 DAA (100%=total damage, 0%=no damage), read-out: Pre-emergence herbicidal activity (percentage phytotoxicity) ECHCG PRE.
Where [5] appears, read: post-emergence, 360 h, POST-emergence, rate 250 g/ha, visual score 15 DAA (100%=total damage, 0%=no damage), read-out: Post-emergence herbicidal activity (percentage phytotoxicity) AVEFA POST.
The mark [6] stands for this setting: pre-emergence, 480 h, PRE-emergence, rate 250 g/ha, visual score 20 DAA (100%=total damage, 0%=no damage), read-out: Pre-emergence herbicidal activity (percentage phytotoxicity) AVEFA PRE.
Setting [7] is: post-emergence, 360 h, POST-emergence, rate 250 g/ha, visual score 15 DAA (100%=total damage, 0%=no damage), read-out: Post-emergence herbicidal activity (percentage phytotoxicity) LOLPE POST.
Where [8] appears, read: pre-emergence, 480 h, PRE-emergence, rate 250 g/ha, visual score 20 DAA (100%=total damage, 0%=no damage), read-out: Pre-emergence herbicidal activity (percentage phytotoxicity) LOLPE PRE.
Setting [9] is: post-emergence, 360 h, POST-emergence, rate 250 g/ha, visual score 15 DAA (100%=total damage, 0%=no damage), read-out: Post-emergence herbicidal activity (percentage phytotoxicity) ALOMY POST.
Where [10] appears, read: pre-emergence, 480 h, PRE-emergence, rate 250 g/ha, visual score 20 DAA (100%=total damage, 0%=no damage), read-out: Pre-emergence herbicidal activity (percentage phytotoxicity) ALOMY PRE.
Setting [11] is: post-emergence, 360 h, Rate 250 g/ha, post-emergence, assessed visually 15 DAA, 100%=total damage, 0%=no damage, read-out: Post-emergence herbicidal activity (percentage phytotoxicity) ECHCG POST.
The mark [12] stands for this setting: pre-emergence, 480 h, Rate 250 g/ha, pre-emergence, assessed visually 20 DAA, 100%=total damage, 0%=no damage, read-out: Pre-emergence herbicidal activity (percentage phytotoxicity) ECHCG PRE.
Where [13] appears, read: post-emergence, 360 h, Rate 250 g/ha, post-emergence, assessed visually 15 DAA, 100%=total damage, 0%=no damage, read-out: Post-emergence herbicidal activity (percentage phytotoxicity) AVEFA POST.
[14] abbreviates: pre-emergence, 480 h, Rate 250 g/ha, pre-emergence, assessed visually 20 DAA, 100%=total damage, 0%=no damage, read-out: Pre-emergence herbicidal activity (percentage phytotoxicity) AVEFA PRE.
Setting [15] is: post-emergence, 360 h, Rate 250 g/ha, post-emergence, assessed visually 15 DAA, 100%=total damage, 0%=no damage, read-out: Post-emergence herbicidal activity (percentage phytotoxicity) LOLPE POST.
Setting [16] is: pre-emergence, 480 h, Rate 250 g/ha, pre-emergence, assessed visually 20 DAA, 100%=total damage, 0%=no damage, read-out: Pre-emergence herbicidal activity (percentage phytotoxicity) LOLPE PRE.
[17] abbreviates: post-emergence, 360 h, Rate 250 g/ha, post-emergence, assessed visually 15 DAA, 100%=total damage, 0%=no damage, read-out: Post-emergence herbicidal activity (percentage phytotoxicity) ALOMY POST.
The mark [18] stands for this setting: pre-emergence, 480 h, Rate 250 g/ha, pre-emergence, assessed visually 20 DAA, 100%=total damage, 0%=no damage, read-out: Pre-emergence herbicidal activity (percentage phytotoxicity) ALOMY PRE.
Where [19] appears, read: post-emergence, 360 h, 250 g/ha, post-emergence, 15 DAA, visual assessment (100%=total damage, 0%=no damage), read-out: Post-emergence herbicidal activity (percentage phytotoxicity) ECHCG POST.
[20] abbreviates: pre-emergence, 480 h, 250 g/ha, pre-emergence, 20 DAA, visual assessment (100%=total damage, 0%=no damage), read-out: Pre-emergence herbicidal activity (percentage phytotoxicity) ECHCG PRE.
The mark [21] stands for this setting: post-emergence, 360 h, 250 g/ha, post-emergence, 15 DAA, visual assessment (100%=total damage, 0%=no damage), read-out: Post-emergence herbicidal activity (percentage phytotoxicity) AVEFA POST.
The mark [22] stands for this setting: pre-emergence, 480 h, 250 g/ha, pre-emergence, 20 DAA, visual assessment (100%=total damage, 0%=no damage), read-out: Pre-emergence herbicidal activity (percentage phytotoxicity) AVEFA PRE.
Setting [23] is: post-emergence, 360 h, 250 g/ha, post-emergence, 15 DAA, visual assessment (100%=total damage, 0%=no damage), read-out: Post-emergence herbicidal activity (percentage phytotoxicity) LOLPE POST.
Setting [24] is: pre-emergence, 480 h, 250 g/ha, pre-emergence, 20 DAA, visual assessment (100%=total damage, 0%=no damage), read-out: Pre-emergence herbicidal activity (percentage phytotoxicity) LOLPE PRE.
The mark [25] stands for this setting: post-emergence, 360 h, 250 g/ha, post-emergence, 15 DAA, visual assessment (100%=total damage, 0%=no damage), read-out: Post-emergence herbicidal activity (percentage phytotoxicity) ALOMY POST.
The mark [26] stands for this setting: pre-emergence, 480 h, 250 g/ha, pre-emergence, 20 DAA, visual assessment (100%=total damage, 0%=no damage), read-out: Pre-emergence herbicidal activity (percentage phytotoxicity) ALOMY PRE.

The structures appear in SMILES notation. Read-outs that look alike come from different tables or passages of the source.

On to `C#CCNC(=O)CC1CC(=O)C(c2c(C)cc(-c3ncc(F)cn3)cc2C)C1=O` (stereo not shown) [Compound B333], for which the pest or weed control at 250 g/ha in assay [1] (setting [3]) was found to be 100%; in assay [1] (setting [4]) it was 100%; in the assay with Avena fatua (AVEFA) (setting [5]), 40%; in the assay on Avena fatua (AVEFA) (setting [6]) it was 100%; in the assay on Lolium perenne (LOLPE) (setting [7]), 90%; with Lolium perenne (LOLPE) (setting [8]), 100%. The pest or weed control at 250 g/ha in assay [2] (setting [9]) and in assay [2] (setting [10]) was 100% in each case.
Regarding `Cc1cc(-c2cc(Cl)ccn2)cc(C)c1C1C(=O)CC(CC(=O)NCc2cccc(C(F)(F)F)c2)C1=O` (stereo not shown) [Compound A154], the pest or weed control at 250 g/ha in assay [1] (setting [11]) worked out at 100%; in assay [1] (setting [12]) it was 80%; in the assay on Avena fatua (AVEFA) (setting [13]) it was 90%; in the assay with Avena fatua (AVEFA) (setting [14]), 60%; in the assay with Lolium perenne (LOLPE) (setting [15]), 70%; in the assay on Lolium perenne (LOLPE) (setting [16]), 80%. The pest or weed control at 250 g/ha was 80% in assay [2] (setting [17]) and 50% in assay [2] (setting [18]).
With `C=CCNC(=O)CC1CC(=O)C(c2c(C)cc(/C=C/C)cc2C)C1=O` (stereo not shown) [Compound B246], the pest or weed control at 250 g/ha amounted to 100% in assay [1] (setting [3]); 70% in assay [1] (setting [4]); 100% with Avena fatua (AVEFA) (setting [5]); 50% with Avena fatua (AVEFA) (setting [6]); 100% in the assay on Lolium perenne (LOLPE) (setting [7]); 90% with Lolium perenne (LOLPE) (setting [8]). Further, the pest or weed control at 250 g/ha was found to be 100% in assay [2] (setting [9]) and 60% in assay [2] (setting [10]).
On to `CCCCCCCNC(=O)CC1CC(=O)C(c2c(C)cc(C)cc2C)C1=O` (stereo not shown) [Compound A178], for which the pest or weed control at 250 g/ha in assay [1] (post-emergence, 360 h, post-emergence, 250 g/ha, 15 DAA, visual score (100%=total damage; 0%=no damage), read-out: ECHCG POST herbicidal activity (percentage phytotoxicity)) is 40%; in assay [1] (pre-emergence, 480 h, pre-emergence, 250 g/ha, 20 DAA, visual score (100%=total damage; 0%=no damage), read-out: ECHCG PRE herbicidal activity (percentage phytotoxicity)) it was 80%; in the assay on Avena fatua (AVEFA) (post-emergence, 360 h, post-emergence, 250 g/ha, 15 DAA, visual score (100%=total damage; 0%=no damage), read-out: AVEFA POST herbicidal activity (percentage phytotoxicity)) it was 70%; with Avena fatua (AVEFA) (pre-emergence, 480 h, pre-emergence, 250 g/ha, 20 DAA, visual score (100%=total damage; 0%=no damage), read-out: AVEFA PRE herbicidal activity (percentage phytotoxicity)), 0%; with Lolium perenne (LOLPE) (post-emergence, 360 h, post-emergence, 250 g/ha, 15 DAA, visual score (100%=total damage; 0%=no damage), read-out: LOLPE POST herbicidal activity (percentage phytotoxicity)), 70%; in the assay with Lolium perenne (LOLPE) (pre-emergence, 480 h, pre-emergence, 250 g/ha, 20 DAA, visual score (100%=total damage; 0%=no damage), read-out: LOLPE PRE herbicidal activity (percentage phytotoxicity)), 80%. Also, the pest or weed control at 250 g/ha is 70% in assay [2] (post-emergence, 360 h, post-emergence, 250 g/ha, 15 DAA, visual score (100%=total damage; 0%=no damage), read-out: ALOMY POST herbicidal activity (percentage phytotoxicity)) and 20% in assay [2] (pre-emergence, 480 h, pre-emergence, 250 g/ha, 20 DAA, visual score (100%=total damage; 0%=no damage), read-out: ALOMY PRE herbicidal activity (percentage phytotoxicity)).
As to `Cc1cc(C)c(C2C(=O)CC(CC(=O)NCc3ccccc3Br)C2=O)c(C)c1` (stereo not shown) [Compound B22], the pest or weed control at 250 g/ha in assay [1] (setting [19]) worked out at 80%; in assay [1] (setting [20]), 90%; in the assay with Avena fatua (AVEFA) (setting [21]), 20%; with Avena fatua (AVEFA) (setting [22]) it was 100%; in the assay with Lolium perenne (LOLPE) (setting [23]), 80%; with Lolium perenne (LOLPE) (setting [24]) it was 90%. The pest or weed control at 250 g/ha in assay [2] (setting [25]) and in assay [2] (setting [26]) was 30% throughout.
Take `Cc1cc(-c2ccc(Cl)nn2)cc(C)c1C1C(=O)CC(CC(=O)NCc2cccs2)C1=O` (stereo not shown) [Compound A151]: the pest or weed control at 250 g/ha in assay [1] (setting [11]) was found to be 70%; in assay [1] (setting [12]), 100%; in the assay with Avena fatua (AVEFA) (setting [13]) it was 50%; in the assay on Avena fatua (AVEFA) (setting [14]) it was 70%; with Lolium perenne (LOLPE) (setting [15]), 40%; in the assay with Lolium perenne (LOLPE) (setting [16]), 80%. The pest or weed control at 250 g/ha in assay [2] (setting [17]) and in assay [2] (setting [18]) was 40% each time.
As to `Cc1cccc(CNC(=O)CC2CC(=O)C(c3c(C)cc(C)cc3C)C2=O)c1` (stereo not shown) [Compound A88], the pest or weed control at 250 g/ha worked out at 80% in assay [1] (setting [11]); 70% in assay [1] (setting [12]); 10% in the assay on Avena fatua (AVEFA) (setting [13]); 0% with Avena fatua (AVEFA) (setting [14]); 100% in the assay with Lolium perenne (LOLPE) (setting [15]); 100% with Lolium perenne (LOLPE) (setting [16]). Further, the pest or weed control at 250 g/ha in assay [2] (setting [17]) amounted to 70%; in assay [2] (setting [18]), 90%.
`Cc1cc(-c2cc(C#N)c(F)cn2)cc(C)c1C1C(=O)CC(CC(=O)NC(C)(C)C)C1=O` (stereo not shown) [Compound B99]: the pest or weed control at 250 g/ha was determined as 80% in assay [1] (setting [19]); 70% in assay [1] (setting [20]); 20% with Avena fatua (AVEFA) (setting [21]); 30% in the assay on Avena fatua (AVEFA) (setting [22]); 80% in the assay with Lolium perenne (LOLPE) (setting [23]); 80% in the assay on Lolium perenne (LOLPE) (setting [24]). The pest or weed control at 250 g/ha in assay [2] (setting [25]) and in assay [2] (setting [26]) was 70% in each case.
